Laboratory results as given in patent publication US5242945A, “Tetronic and thiotetronic acid derivatives as phospholipase A2 inhibitors” (American Home Products Corporation, priority 1991, dated 1993).
Where two headings read alike, the source gives them in different places.

Columns and labels:
cyclooxygenase (PGE2) = experiment: resident murine peritoneal macrophage assay, PGE2; type: cell-based, mouse (Swiss Webster); conditions: Mus musculus, Peritoneal macrophage; for IC50: read-out: PGE2 zymosan IC50
Protocol: (§1) The ability of the compounds of the invention to act as inhibitors of the enzymes 5-lipoxygenase and cyclooxygenase is measured in the resident murine peritoneal macrophage assay.
Resident peritoneal macrophages are collected from female Swiss Webster mice (49 days old, 20-25 gms, Buckshire) by lavaging with 7-8 ml Hanks Balanced Salt Solution (HBSS) without Ca^++ and Mg^++ (GIBCO). The lavage fluid from several mice is pooled and centrifuged at 4° C. for 10 minutes at 400 xg. The cell pellet is resuspended in Medium 199 (GIBCO) with HEPES buffer containing 100 μg/ml gentamicin. Two ml of the cell suspension (4×10^6 cells) are then plated on 35 mm culture dishes (Nunc).
A macrophage monolayer is established after a 1-1.5 hour incubation of the cells at 37° C. in an atmosphere of […] and 5% CO2. The monolayers are washed 2× with 2 ml HBDSS, containing Ca^++ and Mg^++ after which 2 ml Medium 199 supplemented with 10% freshly thawed heat-inactivated fetal bovine serum and 100 μg/ml gentamicin is added for an overnight incubation.
(§2) Residual serum and cellular debris are removed from the monolayers by washing 3× with 2 ml HBSS containing Ca^++ and Mg^++. Macrophages are preincubated for 5 minutes with 1 ml serum-free M199 containing 10 μl dimethyl sulfoxide (DMSO) vehicle or test compound prior to cell activation with zymosan ([…]) or arachidonic acid (AA) (2 μM). After 2 hours, the supernatants are removed and either assayed for LTC4 and PGE2 by radioimmunoassay (RIA) directly or stored at -20° C. In all cases, results are expressed as ng metabolite/4×10^6 cells.
(§3) Raw data (dpm) may be stored directly onto an "Autostart" tape using the HP85 in room C-096. The raw data are converted to ng metabolite/4-10^6cells using the standard curve by a "RIANAL" program (HP85) or a "NONLIN" program (HP9816). Results are then expressed as percent inhibition of zymosan induced, leukotriene or prostaglandin synthesis (control) using the equation: [formula]

[1] = tested on: platelet-activating factor (PAF) biosynthesis in human polymorphonuclear neutrophils (PMN); experiment: platelet-activating factor biosynthesis in human polymorphonuclear neutrophils (in vitro phospholipase A2 assay); type: cell-based; conditions: Polymorphonuclear neutrophil, human PMN
Protocol: The compounds of the invention are tested in an in vitro phospholipase A2 assay to determine the ability of the compounds to inhibit the biosynthesis of platelet-activating factor and LTB4 in purified human neutrophils.
A leukocyte enriched blood sample obtained from a healthy donor is procured by leukophoresis using a Haemonetics model 30+ blood processor (Biological Specialties, Inc., Lansdale, Penn.). The top "platelet-rich" layer is removed after a low speed spin (35 xg, 15 min, 25° C.) of the sample. The remaining cell suspension is centrifuged (400 xg, 10 min, 25° C.) to sediment the remaining cells. The supernatant is discarded and the cell pellet resuspended in 120 ml HBSS (without Ca^++ /Mg^++). The cell suspension is subjected to ficoll-hypaque sedimentation (Histopaque 1077, 400 xg, 30 min, 25° C.). Contaminating erythrocytes are lysed by hypotonic shock (1 min). The cells are then washed once with 40 ml of HBSS and resuspended with HBSS (without Ca^++ /Mg^++) to a concentration of 2.5×10^7 cells/ml for further use. Greater than 95% purity is obtained, as assessed by microscopic examination.
One ml of human PMN (2.5×10^7 cells/ml) is incubated with vehicle or drugs (10 μl) for 10 minutes at 30° C. After preincubation, an equal volume of HBSS (1 ml) containing 2.4 mM CaCl2, 6 μM calcium ionophore A23187 and 50 μCi [^3 H]-acetate is then incubated at 30° C. for 15 minutes. An aliquot (100 μl) of the reaction mixture is taken out and mixed with 900 μl of 15% ethanol. LTB4 is extracted by using solid phase extraction on reverse phase C18 columns to remove excess [^3 H]-acetate and PAD. The C18 column is prewashed once with 2 ml of ethanol and water. The sample aliquot is acidified with 0.1N HCl to pH 3 before applying to the column. The column is then washed with 2 ml of water followed by 2 ml of 15% ethanol and 2 ml of petroleum ether to remove excess labeled acetate. The sample is eluted with 2 ml of ethyl acetate. The collected samples are dried with nitrogen and resuspended in 0.5 ml RIA buffer. The quantity of LTB4 in the sample is obtained from RIA determination. For PAF determination, the reaction is terminated by addition of 5 ml chloroform:methanol:acetic acid (2:1:0.04, v/v/v). [^3 H]-PAF is obtained by Bligh and Dyer extraction. The chloroform phase is removed and dried under nitrogen. The residue is redissolved in 75 μl of chloroform:methanol (80:20, v/v). [^3 H]-PAF is resolved from other phospholipids by TLC on RPC18 plates with a solvent system of chloroform:methanol:water (2:3:1, v/v/v) and is quantitated using a Berthold automated TLC linear analyzer.
Data presented are the mean +/- s.d. of the values relative to control A23187 stimulated cells for each experiment assayed in triplicate. Percent inhibition when used is calculated as:
% Inhibition=100-[(x.div.Control)×100].
Dose response analysis is performed by non-linear regression analysis for curve fitting and IC50 determination.

5-lipoxygenase (LTC4) = experiment: resident murine peritoneal macrophage assay, LTC4; type: cell-based, mouse (Swiss Webster); conditions: for IC50: read-out: LTC4 zymosan IC50; for LTC4 AA % Inhibition: arachidonic acid stimulation
Protocol: as §1
Resident peritoneal macrophages are collected from female Swiss Webster mice (49 days old, 20-25 gms, Buckshire) by lavaging with 7-8 ml Hanks Balanced Salt Solution (HBSS) without Ca^++ and Mg^++ (GIBCO). The lavage fluid from several mice is pooled and centrifuged at 4° C. for 10 minutes at 400 xg.
as §2, §3

[2] = Mus musculus, Peritoneal macrophage, zymosan stimulation
[3] = arachidonic acid stimulation, read-out: PGE2 AA % Inhibition
[4] = zymosan stimulation, read-out: PGE2 zymosan % Inhibition

Compound | IC50 (cyclooxygenase (PGE2); zymosan stimulation) [nM] | inhibition at 25 µM [1] [%] | inhibition at 50 µM [1] [%] | IC50 (5-lipoxygenase (LTC4); [2]) [nM] | inhibition at 0.1 µM (cyclooxygenase (PGE2); zymosan stimulation) [%] | also measured
CCCCCCCCCC(=O)C1=C(O)COC1=O [Example 1, 4-Hydroxy-3-(1-oxodecyl)-2(5H)-furanone] | 3000 | 32 | 68 | 2000 |  | inhibition at 10 µM [1]: 13%
CCCCCCCC/C=C\CCCCCCCC(=O)C1=C(O)COC1=O [Example 9, (Z)-4-Hydroxy-3-(1-oxo-9-octadecenyl)-2(5H)-furanone] | 200 |  | 56 | 200 |  | inhibition at 0.3 µM (cyclooxygenase (PGE2); [3]): 4%; LTC4 AA % Inhibition (5-lipoxygenase (LTC4); dose 0.3 (unit not given)): 8%
CCCCC/C=C\C/C=C\CCCCCCCC(=O)C1=C(O)COC1=O [Example 14, (Z,Z)-4-Hydroxy-3-(1-oxo-9,12-octadecadienyl)-2(5H)-furanone] | 4000 | 19 | 64 |  |  | inhibition at 5 µM (cyclooxygenase (PGE2); arachidonic acid stimulation, 5 μM, read-out: PGE2 AA % Inhibition): 38%; inhibition at 10 µM [1]: 16%; LTC4 AA % Inhibition (5-lipoxygenase (LTC4); dose 5 (unit not given)): 61%
CC/C=C\C/C=C\C/C=C\CCCCCCCC(=O)C1=C(O)COC1=O [Example 15, (Z,Z,Z)-4-Hydroxy-3-(1-oxo-9,12,15-octadecatrienyl)-2(5H)-furanone] | 350 |  | 21 | 450 |  | 
CCCCCCCCCCC/C=C\CCCCC(=O)C1=C(O)COC1=O [Example 18, (Z)-4-Hydroxy-3-(1-oxo-6-octadecenyl)-2(5H)-furanone] | 140 | 53 | 47 | 160 |  | inhibition at 0.3 µM (cyclooxygenase (PGE2); [3]): -17%; LTC4 AA % Inhibition (5-lipoxygenase (LTC4); dose 0.3 (unit not given)): -6%
CCCCC/C=C\C/C=C\C/C=C\CCCCC(=O)C1=C(O)COC1=O [Example 20, (Z,Z,Z)-4-Hydroxy-3-(1-oxo-6,9,12-octadecatrienyl)-2(5H)-furanone] | 700 |  | 83 | 700 |  | inhibition at 1 µM (cyclooxygenase (PGE2); arachidonic acid stimulation, 1.0 μM, read-out: PGE2 AA % Inhibition): 1%; LTC4 AA % Inhibition (5-lipoxygenase (LTC4); dose 1.0 (unit not given)): -51%
CCCCCC1CC1CC1CC1CCCCCCCC(=O)C1=C(O)COC1=O (stereo not shown) [Example 22, 4-Hydroxy-3-[1-oxo-8-[2-[(2-pentylcyclopropyl)methyl]cyclopropyl]octyl]-2(5H)-furanone] | 200 | 49 | 67 | 200 |  | inhibition at 10 µM [1]: 24%
CCCC/C=C\CCCCCCCC(=O)C1=C(O)COC1=O [Example 25, 4-Hydroxy-3-((Z)-1-oxo-9-tetradecenyl)-2(5H)-furanone] | 200 |  | 47 | 250 |  | LTC4 AA % Inhibition (5-lipoxygenase (LTC4); dose 0.6 (unit not given)): -4%
O=C(CCCCCCC/C=C\c1ccc(Cl)cc1)C1=C(O)COC1=O [Example 35, 3-[(Z)-10-(4-chlorophenyl)-1-oxo-9-decenyl]-4-hydroxy-2(5H)-furanone] | 150 |  | 5 | 300 |  | 
CCCCC/C=C\C/C=C\CCCCCCCC(=O)C1=C(O)CSC1=O [Example 46, 4-Hydroxy-3[(Z,Z)-1-oxo-9,12-octadecadienyl]-2(5H)-thiophenone] | 100 | 7 | 50 | 300 | 51.9 | inhibition at 0.5 µM (cyclooxygenase (PGE2); [3]): 5%; LTC4 AA % Inhibition (5-lipoxygenase (LTC4); dose 0.5 (unit not given)): -9%
CCCCCCCC/C=C\CCCCCCCC(=O)C1=C(O)CSC1=O [Example 47, 4-Hydroxy-3-[(Z)-1-oxo-9-octadecenyl]-2(5H)-thiophenone] | 100 |  | 35 | 100 | 48.4 | inhibition at 0.3 µM (cyclooxygenase (PGE2); [3]): -26%; inhibition at 0.1 µM (5-lipoxygenase (LTC4); [2]): 46.2%; LTC4 AA % Inhibition (5-lipoxygenase (LTC4); dose 0.3 (unit not given)): 9%
CCCC/C=C\CCCCCCCC(=O)C1=C(O)CSC1=O [Example 48, 4-Hydroxy-3-[(Z)-1-oxo-9-tetra-decenyl]-2(5H)-thiophenone] |  | 76 |  |  | 71.8 | inhibition at 0.3 µM (cyclooxygenase (PGE2); [3]): -16%; inhibition at 0.03 µM (cyclooxygenase (PGE2); zymosan stimulation, 0.03 μM): 25.4%; inhibition at 0.1 µM (5-lipoxygenase (LTC4); [2]): 25.3%; inhibition at 1 µM (5-lipoxygenase (LTC4); Mus musculus, Peritoneal macrophage, zymosan stimulation, 1.0 μM): 77.1%; LTC4 AA % Inhibition (5-lipoxygenase (LTC4); dose 0.3 (unit not given)): -5%
CCCCC/C=C\C/C=C\C/C=C\CCCCC(=O)C1=C(O)CSC1=O [Example 50, 4-Hydroxy-3-[(Z,Z,Z)-1-oxo-6,9,12-octadecatrienyl]-2(5H)-thiophenone] |  |  |  |  | 21.6 | inhibition at 0.5 µM (cyclooxygenase (PGE2); [3]): -35%; inhibition at 0.5 µM (cyclooxygenase (PGE2); [4]): 70.1%; inhibition at 10 µM [1]: 42%; inhibition at 0.1 µM (5-lipoxygenase (LTC4); [2]): 38.8%; inhibition at 0.5 µM (5-lipoxygenase (LTC4); [2]): 48.1%; LTC4 AA % Inhibition (5-lipoxygenase (LTC4); dose 0.5 (unit not given)): -33%
CCCCCCCCCCC/C=C\CCCCC(=O)C1=C(O)CSC1=O [Example 51, 4-Hydroxy-3-[(Z)-1-oxo-6-octadecenyl]-2(5H)-thiophenone] |  |  | 70 |  | 0.5 | inhibition at 0.5 µM (cyclooxygenase (PGE2); [4]): 91.3%; inhibition at 0.1 µM (5-lipoxygenase (LTC4); [2]): 21.1%; inhibition at 0.5 µM (5-lipoxygenase (LTC4); [2]): 59.4%; LTC4 AA % Inhibition (5-lipoxygenase (LTC4); dose 0.5 (unit not given)): -4%
